Laboratory results from PubChem BioAssay AID2305 (GlaxoSmithKline (GSK), 2010).

Each molecule was assayed on P. falciparum 3D7 growth, pLDH absorbance (assay: P. falciparum 3D7 growth inhibition, dose response, strain 3D7 (AID 2305)).

Going from `COc1c(C2CCN(CCCCNC(=O)c3ccc(-c4ccc(Cl)cc4)c(OCCN(C)C)c3)CC2)ccc2c1CCCC2` to `COc1c(C2CCN(CCCCNC(=O)c3ccc(-c4ccc(C(=O)C(F)(F)F)cc4)cc3)CC2)ccc2c1CCCC2`, the IC50 rises from 190 nM to 1100 nM (5.8-fold). The first is the more potent here.

Going from `CCCCCCc1ncc(-c2cc3cc(O)c(-c4ccccc4)cc3oc2=O)s1` to `Cc1nc(-c2cccc(Nc3nccc(NCC(O)c4ccccc4)n3)c2)cs1` (centres undefined), the IC50 falls from 1240 nM to 790 nM (1.6-fold).

Compared with `Cc1cccc2[nH]c(-c3ccc(-c4cccc(NC(=O)Nc5ccc(Cl)cc5)c4)s3)nc12`, `Cc1cccc2[nH]c(-c3ccc(-c4ccc(NC(=O)CN5CCN(C)CC5)cc4)s3)nc12` is 2-fold higher in IC50: 520 nM for the first, 1020 nM for the second. The first is the more potent here.

First: NCC1CCCN1Cc1ccc(-c2ccc(-c3nc4ccc(C(F)(F)F)cc4[nH]3)s2)cc1 (centres undefined)
Second: CC(C)NCc1ccc(-c2ccc(-c3nc4ccc(C(F)(F)F)cc4[nH]3)s2)cc1
The IC50 of the first is 4.4-fold higher: 790 nM for the first, 180 nM for the second.

First: Cc1cc(C(=O)CN2C(=O)NC3(CCOc4ccccc43)C2=O)c(C)n1Cc1ccc(F)cc1 (centres undefined)
Second: Cc1[nH]c2ccccc2c1C1=CCN(CCCCC2(C)C(=O)Nc3ccccc32)CC1 (centres undefined)
The IC50 of the first is 3.8-fold higher: 880 nM for the first, 230 nM for the second.

`CSc1ccc(CN2CCC(NC(=O)c3ccc(-c4ccc(N(C)C)cc4)s3)CC2)cc1` and `CCc1ccc(CN2CCC(CNC(=O)c3cc(-c4cccc(Cl)c4)cs3)C2)cc1` (centres undefined) are within 1.5-fold of each other in IC50: 1500 nM for the first, 1110 nM for the second.

`O=C(O)c1ccc(-c2c[nH]c3ncc(-c4ccc(Cl)cc4)cc23)cc1` and `COC(=O)c1ccc(-c2ccc(-c3cccnc3)cc2C)cc1` are within 1.5-fold of each other in IC50: 730 nM for the first, 660 nM for the second.

`COc1cc(F)c2ncc(Cl)c(CCN3CCC(NCc4cc5c(cn4)OCCO5)CC3)c2c1` and `O=C(NC1CCCCC1)N(Cc1ccc(-c2ccc(CNCc3ccc4c(c3)OCO4)cc2)cc1)C1CCN(Cc2ccccc2)CC1` are within 1.5-fold of each other in IC50: 480 nM for the first, 690 nM for the second.

`N#Cc1ccc(N[C@@H](CC2CCCCC2)C(=O)N[C@@H]2CCCc3ccccc32)c2ccccc12` and `O=C(NC1CCCCC1)N(Cc1cccc(-c2ccc(CNCCc3ccccc3)cc2)c1)C1CCN(Cc2ccccc2)CC1` are within 1.5-fold of each other in IC50: 730 nM for the first, 650 nM for the second.

Compared with `CCCOc1ccc(-c2nonc2NC(=O)c2cccc(OC)c2)cc1OCCC`, `CCn1c(C)c(C)c2cc(C(=O)Nc3ccon3)ccc21` is 1.6-fold lower in IC50: 1150 nM for the first, 730 nM for the second. The second is the more potent here.

Going from `CC1CN(Cc2ccc(C#N)cc2)CCN1c1ccc(NC(=O)c2cccs2)cc1` (centres undefined) to `Cc1ccc(CN2CCCN(Cc3cccc(NC(=O)c4ccc(-c5ccccc5)cc4)c3)CC2)cc1C`, the IC50 rises from 810 nM to 1250 nM (1.5-fold). The first is the more potent here.

`CCNc1cc(C(=O)N[C@@H](Cc2ccccc2)[C@H](O)CNC23CC4CC(CC(C4)C2)C3)cc(N2CCCCS2(=O)=O)c1` and `CC(C)N(CC(=O)c1ccc(O)c(C(=O)O)c1)Cc1ccccc1` are within 1.5-fold of each other in IC50: 220 nM for the first, 190 nM for the second.

Compared with `O=C(Nc1ccc(Cl)cc1)Nc1cccc(CCNCc2ccccc2)c1`, `CN1CCN(c2ccnc3ccc(NC(=O)Nc4ccc5ccccc5c4)cc23)CC1` is 9.1-fold lower in IC50: 730 nM for the first, 80 nM for the second. The second is the more potent here.

Going from `Nc1nc(N)c2c(Cl)c(N(Cc3ccccc3)Cc3ccccc3)ccc2n1` to `O=C(Cc1ccsc1)NCC(c1ccccc1Cl)c1c[nH]c2ccccc12` (centres undefined), the IC50 rises from 190 nM to 950 nM (5-fold).

`CCC(CC)CN1C(=O)C(c2ccccc2)(c2ccccc2)N=C1N` and `CCOC(C(=O)OCC1CCCN1C)(c1ccccc1)c1ccccc1` (centres undefined) are within 1.5-fold of each other in IC50: 970 nM for the first, 860 nM for the second.

Compared with `Cc1ccc2nc(C)n(C3CCN(C(=O)Cc4ccc(F)c(F)c4)CC3)c2c1`, `Cc1ccc(NC(=O)c2cc(Br)cc(N3CCC(N(C)C)CC3)c2)cc1F` is 1.8-fold higher in IC50: 470 nM for the first, 840 nM for the second. The first is the more potent here.

`Oc1cccc(/C=N/Nc2ccnc3cc(Cl)ccc23)c1` and `Fc1ccc2c(NN=CC=Cc3ccccc3)ccnc2c1` are within 1.5-fold of each other in IC50: 730 nM for the first, 780 nM for the second.

Compared with `O=C(Nc1cc(=O)[nH]c2nc(-c3ccccc3)nn12)C1CCCCC1`, `O=C(c1ccc(-c2cccc(-c3nc4ccc(C(F)(F)F)cc4[nH]3)c2)cc1)N1CCCCC1CN1CCC(O)C1` (centres undefined) is 1.5-fold higher in IC50: 420 nM for the first, 650 nM for the second. The first is the more potent here.

Compared with `COc1cccc(C(=O)Nc2sc3c(c2C(N)=O)CCCC3)c1OC`, `COc1cc2nc(N3CCC(CNC(=O)c4ccc(-c5ccc(C(F)(F)F)cc5)cc4)CC3)nc(N)c2cc1OC` is 7.2-fold lower in IC50: 930 nM for the first, 130 nM for the second. The second is the more potent here.

First: CC[C@H](C)CNCc1ccc(OCc2cccc(COc3ccc(CNC[C@@H](C)CC)cc3I)c2)c(I)c1
Second: COCCNCc1ccc(-c2ccc(CNc3ccc4ncccc4c3)cc2)cc1
The IC50 of the first is 2.6-fold lower: 400 nM for the first, 1040 nM for the second.

First: Oc1cc(-c2nc(C3(CNCc4ccc(Cl)cc4)CCCCC3)[nH]c2-c2ccncc2)ccc1Cl
Second: O=S(=O)(c1ccc(OCc2ccc(Cl)cc2)cc1)c1cc2c(c(-c3ccc(F)cc3)c1)CCN(CC1CC1)CC2
The IC50 of the first is 8.6-fold lower: 130 nM for the first, 1120 nM for the second. The first is the more potent here.

Compared with `Nc1nc(N)c2c(ccc3c2ccn3CCCC(F)(F)F)n1`, `O=S(=O)(NC1CCN(c2ccnc3cc(Cl)ccc23)C1)c1ccc(C(F)(F)F)cc1` (centres undefined) is 3-fold higher in IC50: 100 nM for the first, 300 nM for the second.

Going from `CC(=O)Nc1cccc(/C=C/C(=O)N2CCC(N3CCCCC3)CC2)c1` to `CC[C@H]1CN2CC[C@H]1C[C@H]2[C@H](O)c1cc(N2CCC3CCCCC3C2)nc2ccc(OC)cc12` (some centres undefined), the IC50 falls from 1050 nM to 170 nM (6.2-fold). The second is the more potent here.

`CN1CCN(c2ccc(CNc3ccc4ncc(-c5ccc(OC(F)(F)F)cc5)n4n3)cc2)CC1` and `CN1CCC(NCc2ccc(-c3ccc(C(F)(F)F)cc3)cc2)CC1` are within 1.5-fold of each other in IC50: 830 nM for the first, 800 nM for the second.

`CCOC(=O)c1c(SCc2cccc(F)c2F)[nH]c2ccccc2c1=O` gave an IC50 of 640 nM.
